These results are taken from patent US8198322B2, “Apoptotic and anti-tumor activities of metallo-salens” (Board of Regents, The University of Texas System, priority 2008, dated 2012).

One data set can be described thus: Animal toxicity. In kind it is in vivo. The conditions noted are these: C57B mice, intraperitoneal, 5, 10 and 20 mg/kg, twice a week for 4 weeks. As for the experimental part:
The inventors intraperitoneally administered the Mn(III)-salen complexes (in PBS) at three different dozes (5, 10 and 20 mg/kg of mice, 6 weeks old normal C57B mice). The mice were treated twice a week for 4 weeks. After treatment, sign of toxicity were monitored (such as weight loss, mobility), animal behavior and health on a daily basis.

The test system of data set [1] is colon cancer xenograft (CCL228 cells). Description: Colon cancer xenograft experiment. The conditions noted are these: Athymic nude nu/nu mice, intraperitoneal, 10 mg/kg, twice a week. The format is in vivo. As for the experimental part: Athymic nude nu/nu mice carrying the colon cancer xenograft were administered with 10 mg/kg of 3,3′-dimethoxy Mn(III)-salen (compound 6), 3,3′-dihydroxy Mn(III)-salphen (compound 9) and 3,3′-dihydroxy Mn(III)-salnaphen (compound 16) at 4 days interval, for over a period of 21 days. Tumor diameters were measured using a slide caliper prior to each administration and plotted (left panel). Bar indicated standard deviation (3 replicate experiments).
All the animal experiments were carried out using the IACUC approved protocol. For examining the efficacies of metallo-salen complexes, the inventors administered selected metallo-salen complexes in PBS intraperitoneally on Athymic nude nu/nu mice (Harlan) carrying the colon cancer xenografts. In brief, 2×10^6 human colon cancer cells (CCL228 cell in 100 μl of PBS) were injected subcutaneously (near the right back limb). Animals were examined daily for signs of tumor growth and behavior. Once the tumor size reached ˜25 mm^2 (2 to 3 weeks after injection of cells) the inventors administered the metallo-salen complexes intraperitoneally (in PBS solution, twice in a week, in three parallel replicates). Control mice were injected with equal volume of the diluents (PBS) alone. Prior to every new treatment with metallo-salen complexes, bi-dimensional measurements were carried out using calipers and cross-sectional area (tumor size) and data were plotted (FIG. 8A).
Xenograft experiment: To test the efficacy in controlling the tumor growth, the inventors administered compound compounds, 6, 9 and 16, intraperitoneally to six week old Athymic nude nu/nu mice carrying the colon cancer xenograft. In brief, 2×10^6 human colon cancer cells (CCL228 cell in 100 μl of PBS) were injected subcutaneously (near the right back limb). Animals were examined daily for signs of tumor growth and behavior. Once the tumor size reached ˜25 mm^2 (2 to 3 weeks after injection of cells) the inventors administered compounds 6, 9, and 16 intraperitoneally (separately in PBS solution, twice a week, 10 mg/kg dose). Every study was performed in three parallel replicates. […]

The subject of data set [2] is MCF-7 cells. Put plainly: Cell viability assay (MTT, DIC microscopy) at 20 μM. The conditions noted are these: for Summary of cell viability activities (active/inactive): MCF-7 cells, 20 μM, 24-96 hrs, MTT. Further details: key to Summary of cell viability activities (active/inactive): Y and N indicates active and inactive compounds respectively; Y and N indicates active and inactive compounds respectively. The format is cell-based, human. As for the experimental part:
(A-F): MCF-7 cells were treated with 20 μM metallo-salens and incubated for varying time periods (24-96 hrs). Viable cells were quantified using MTT assay. The percent viable cells (relative to control, treated with equivalent amount of DMSO) were plotted as a function of time for each compound. This experiment was repeated twice with 8 replicate treatments each time. Bars indicates standard errors of mean (SEM). Curves 1-42 in FIGS. 2A-2F, represent the viability curves for compounds 1-42 respectively. (A′-F′) DIC images of the corresponding MCF-7 cells that were treated with DMSO (control panel), or with 20 μM Mn(III)- and Fe(III)-salen complexes for 72 hrs showing the visual effects on cellular morphology and growth/death.
Cell viability assay: Approximately 10,000 MCF-7 cells were seeded into each well of a 96 well micro titer plate and incubated 24 hrs in presence of 150 μL DMEM. An additional 50 μL DMEM containing required amount of each metallo-salen to obtain 20 μM final concentrations (in 200 μL final volume) in 8 replicate wells were added. Control wells were treated with equivalent amount of dimethylsulfoxide (DMSO). The viability of the cells was assayed at 24, 48, 72 and 96 hrs post treatment by using both microscopic observation and MTT assay. For microscopic observation cells were stained with trypan blue for at least 10 minute and observed under Differential Interference Contrast (DIC) setting of a fluorescence microscope (Nikon Eclipse TE2000-U, Japan). The MTT assay was performed as described previously^42. In brief, 20 μL MTT (5 mg/ml in PBS) was added into each wells and incubated for 2 hrs under normal growth condition to allow the viable cell to convert MTT to formazan. Then the media was discarded and formazan crystals were dissolved by adding 100 μL of DMSO and incubating 2 hrs with continuous shaking. The absorbance of the lysates were directly measured at 560 nm using a micro plate reader (Fluostar-omega, BMG Labtech). The absorbance values (which are proportional to the viable cell) are plotted as a function of time. The studies were repeated twice with 8 replicates each time.
The inventors studied the effect of Mn(III)-salen and Fe(III)-salen derivatives on the cell viability of cultured breast cancer cells MCF-7 in order to investigate the biochemical effects of the derivatives. The cells were incubated alone or with 20 μM of each of the metallo-salen derivatives separately (compounds 1-45) for varying time periods (0-96 hrs). The viable cells were quantified using MTT assay and the percent of cell survived (relative to the control untreated cells) were plotted against time (FIGS. 2A-2F).

Data set [3] relates to MCF-7 cells. Description: Cytotoxicity assay (IC50 measurement, MTT). In kind it is cell-based, human. The following applies: MCF-7, 96 hrs, read-out: IC50 values for different complexes in MCF-7 cells. As for the experimental part: Cytotoxicity assay (IC50 measurement): The cytotoxicity of Fe(III)-salen and its derivatives was determined by using MTT assay as described previously^42. In brief, approximately 10,000 MCF-7 cells were seeded into each well of a 96 well micro titer plate and incubated 24 hrs in presence of 150 μL DMEM. An additional 50 μL DMEM containing required amount of each metallo-salen to obtain 0.05 to 60 μM final concentration (in 200 μL final volume) in 8 replicate wells were added. Control wells were treated with equivalent amount of DMSO. After 96 hrs of incubation, 20 μL of MTT (5 mg/mL) was added into each well and cell viability was assayed by measuring the formazan absorption at 560 nm as described above. The absorbance (at 560 nm) values were plotted against concentration of metallo-salens to determine the IC50. The studies were repeated twice with 8 replicates each time.
The concentration of the metal-complexes at which the conversion of MTT to formazan by viable cells is reduced by 50% compared to control cells is defined as the IC50. The percent of cell survival relative to the control cells were plotted as a function of concentration of the metallo-salen derivatives.

For data set [4], the system named is MCF-7 and CCL228 cancer cells over MCF-10 normal breast epithelial cells. Description: IC50 comparison of cancer versus normal cell lines (MTT, FIG. 4). In kind it is cell-based, human. The following applies: ratio of IC50 values. How it is done: IC50 values for each biochemically compounds were determined using MTT assay in three different cell lines that include MCF-7 (breast cancer), CCL228 (colon cancer) and MCF-10 (normal breast epithelial cells). IC50 values were for comparison for each compound (compounds 1-45) as marked.
To study the anti-tumor drug potential of Mn(III)- and Fe(III)-metallo salen derivatives, the inventors analyzed IC50 values for the each of the active compounds towards different cancer as well as normal cells. The IC50 values for different active compounds (compounds 1-42) for three different cell lines, MCF-7 (breast cancer), CCL228 (colon cancer) and MCF-10 (non malignant breast cells), are plotted in the bar graph in FIG. 4.

In general, IC50 refers to the midpoint of a concentration-inhibition curve. As for `CC(=O)[O-].[Mn+3].[O-]c1c(O)cccc1C=Nc1cc2ccccc2cc1N=Cc1cccc(O)c1[O-]` [compound 16, 3,3′-Dihydroxysalnaphen Mn(III) acetate], in the data set “Animal toxicity”, the animal toxicity entry is given as “did not have any significant animal toxicity”; the “survival and body weight” value is “survived without significant loss of body weight”. For the same compound, the “tumor growth in colon cancer xenograft” value in data set [1] is recorded as “tumor size were grown exponentially”. Moreover, the “Summary of cell viability activities (active/inactive)” value in the data set on MCF-7 cells [2] was “Y (16)”. Moreover, the IC50 in the data set with MCF-7 cells [3] worked out at 40.3 µM.

Take `COc1ccc(C=NCCN=Cc2ccc(OC)cc2[O-])c([O-])c1.[Cl-].[Fe+3]` [compound 27, 4,4′-Dimethoxysalen Fe(III) chloride]: the “selectivity in killing cancer cells (MCF-7 and CCL228) over normal cells (MCF-10)” value in data set [4] is listed as “about 4 fold”. Further, the “time to induce similar extent (more than 80%) of cell death” value in the data set on MCF-7 cells [2] (MCF-7, 20 μM) is “about 72 hrs”. Moreover, the “effect on cell viability (in words)” value with MCF-7 cells [2] (MCF-7, 20 μM, up to 96 hrs) is recorded as “highly effective in killing MCF-7 cells”. Moreover, the “Summary of cell viability activities (active/inactive)” value in the data set on MCF-7 cells [2] is listed as “Y (27)”. In addition, in the data set with MCF-7 cells [3], the IC50 amounted to 12.4 µM.
